Test results published in ChEMBL document CHEMBL3352489, “6-Hydroxyquinolinium salts differing in the length of alkyl side-chain: synthesis and antimicrobial activity” (Bioorg Med Chem Lett, 2014).

Assays:
Trichosporon asahii [1] = assay: microbe, parasite or virus in culture; assay type: functional; settings: Trichosporon asahii, 1188, 48 h
Description: Antifungal activity against Trichosporon asahii 1188 after 48 hrs by modified standard CSLI M27-A2 method

Candida albicans [2] = assay: microbe, parasite or virus in culture; assay type: functional; settings: ATCC 44859, 24 h
Description: Antifungal activity against Candida albicans ATCC 44859 after 24 hrs by modified standard CSLI M27-A2 method

Staphylococcus aureus [3] = assay: microbe, parasite or virus in culture; assay type: functional; settings: CCM 4516/08, 24 h
Description: Antibacterial activity against Staphylococcus aureus CCM 4516/08 after 24 hrs by microdilution broth method

[4] = system: Trichophyton mentagrophytes; assay: microbe, parasite or virus in culture; assay type: functional; settings: Trichophyton mentagrophytes, 445, 120 h
Description: Antifungal activity against Trichophyton mentagrophytes 445 after 120 hrs by modified standard CSLI M27-A2 method

Pichia kudriavzevii [5] = assay: Antifungal activity against Candida krusei E28 after 24 hrs by modified standard CSLI M27-A2 method; assay type: functional; settings: E28, 24 h
Trichosporon asahii [6] = assay: microbe, parasite or virus in culture; assay type: functional; settings: Trichosporon asahii, 1188, 24 h
Description: Antifungal activity against Trichosporon asahii 1188 after 24 hrs by modified standard CSLI M27-A2 method

Klebsiella pneumoniae [7] = assay: microbe, parasite or virus in culture; assay type: functional; settings: D 11750/08, 24 h
Description: Antibacterial activity against Klebsiella pneumoniae D 11750/08 after 24 hrs by microdilution broth method

Aspergillus fumigatus [8] = assay: microbe, parasite or virus in culture; assay type: functional; settings: Aspergillus fumigatus, 231, 24 h
Description: Antifungal activity against Aspergillus fumigatus 231 after 24 hrs by modified standard CSLI M27-A2 method

Trichosporon asahii [9] = assay: Fungicidal activity against Trichosporon asahii 1188 after 48 hrs by modified standard CSLI M27-A2 method; assay type: functional; settings: Trichosporon asahii, 1188, 48 h
Aspergillus fumigatus [10] = assay: microbe, parasite or virus in culture; assay type: functional; settings: Aspergillus fumigatus, 231, 48 h
Description: Antifungal activity against Aspergillus fumigatus 231 after 48 hrs by modified standard CSLI M27-A2 method

Lichtheimia corymbifera [11] = assay: microbe, parasite or virus in culture; assay type: functional; settings: Lichtheimia corymbifera, 272, 24 h
Description: Antifungal activity against Absidia corymbifera 272 after 24 hrs by modified standard CSLI M27-A2 method

Nakaseomyces glabratus [12] = assay: Antifungal activity against Candida glabrata 20/I after 48 hrs by modified standard CSLI M27-A2 method; assay type: functional
Candida albicans [13] = assay: microbe, parasite or virus in culture; assay type: functional; settings: ATCC 44859, 48 h
Description: Antifungal activity against Candida albicans ATCC 44859 after 48 hrs by modified standard CSLI M27-A2 method

Candida tropicalis [14] = assay: microbe, parasite or virus in culture; assay type: functional; settings: Candida tropicalis, 156, 24 h
Description: Antifungal activity against Candida tropicalis 156 after 24 hrs by modified standard CSLI M27-A2 method

Lichtheimia corymbifera [15] = assay: Fungicidal activity against Absidia corymbifera 272 after 48 hrs by modified standard CSLI M27-A2 method; assay type: functional; settings: Lichtheimia corymbifera, 272, 48 h
Staphylococcus aureus [16] = assay: Bactericidal activity against Staphylococcus aureus H 5996/08 after 48 hrs by microdilution broth method; assay type: functional; settings: H 5996/08, 48 h, read-out: MBC>99.9
Enterococcus sp. [17] = assay: microbe, parasite or virus in culture; assay type: functional; settings: J 14365/08, 48 h
Description: Antibacterial activity against Enterococcus sp. J 14365/08 after 48 hrs by microdilution broth method

Lichtheimia corymbifera [18] = assay: microbe, parasite or virus in culture; assay type: functional; settings: Lichtheimia corymbifera, 272, 48 h
Description: Antifungal activity against Absidia corymbifera 272 after 48 hrs by modified standard CSLI M27-A2 method

[19] = system: Staphylococcus epidermidis; assay: microbe, parasite or virus in culture; assay type: functional; settings: H 6966/08, 48 h
Description: Antibacterial activity against Staphylococcus epidermidis H 6966/08 after 48 hrs by microdilution broth method

Staphylococcus aureus [20] = assay: microbe, parasite or virus in culture; assay type: functional; settings: CCM 4516/08, 48 h
Description: Antibacterial activity against Staphylococcus aureus CCM 4516/08 after 48 hrs by microdilution broth method

Staphylococcus aureus [21] = assay: microbe, parasite or virus in culture; assay type: functional; settings: H 5996/08, 24 h
Description: Antibacterial activity against Staphylococcus aureus H 5996/08 after 24 hrs by microdilution broth method

Pseudomonas aeruginosa [22] = assay: Bactericidal activity against Pseudomonas aeruginosa CCM 1961 after 120 hrs by microdilution broth method; assay type: functional; settings: CCM 1961, 120 h, read-out: MBC>99.9
Candida tropicalis [23] = assay: Fungicidal activity against Candida tropicalis 156 after 48 hrs by modified standard CSLI M27-A2 method; assay type: functional; settings: Candida tropicalis, 156, 48 h
Candida tropicalis [24] = assay: microbe, parasite or virus in culture; assay type: functional; settings: Candida tropicalis, 156, 48 h
Description: Antifungal activity against Candida tropicalis 156 after 48 hrs by modified standard CSLI M27-A2 method

Pseudomonas aeruginosa [25] = assay: microbe, parasite or virus in culture; assay type: functional; settings: CCM 1961, 120 h
Description: Antibacterial activity against Pseudomonas aeruginosa CCM 1961 after 120 hrs by microdilution broth method

[26] = system: Staphylococcus epidermidis; assay: microbe, parasite or virus in culture; assay type: functional; settings: H 6966/08, 24 h
Description: Antibacterial activity against Staphylococcus epidermidis H 6966/08 after 24 hrs by microdilution broth method

Klebsiella pneumoniae [27] = assay: microbe, parasite or virus in culture; assay type: functional; settings: J 14368/08, 24 h
Description: Antibacterial activity against Klebsiella pneumoniae J 14368/08 after 24 hrs by microdilution broth method

Nakaseomyces glabratus [28] = assay: Fungicidal activity against Candida glabrata 20/I after 48 hrs by modified standard CSLI M27-A2 method; assay type: functional
Staphylococcus aureus [29] = assay: microbe, parasite or virus in culture; assay type: functional; settings: H 5996/08, 48 h
Description: Antibacterial activity against Staphylococcus aureus H 5996/08 after 48 hrs by microdilution broth method

Enterococcus sp. [30] = assay: Bactericidal activity against Enterococcus sp. J 14365/08 after 48 hrs by microdilution broth method; assay type: functional; settings: J 14365/08, 48 h, read-out: MBC>99.9
Pichia kudriavzevii [31] = assay: Antifungal activity against Candida krusei E28 after 48 hrs by modified standard CSLI M27-A2 method; assay type: functional; settings: E28, 48 h
Klebsiella pneumoniae [32] = assay: microbe, parasite or virus in culture; assay type: functional; settings: D 11750/08, 48 h
Description: Antibacterial activity against Klebsiella pneumoniae D 11750/08 after 48 hrs by microdilution broth method

[33] = system: Trichophyton mentagrophytes; assay: Fungicidal activity against Trichophyton mentagrophytes 445 after 120 hrs by modified standard CSLI M27-A2 method; assay type: functional; settings: Trichophyton mentagrophytes, 445, 120 h
Klebsiella pneumoniae [34] = assay: Bactericidal activity against Klebsiella pneumoniae J 14368/08 after 48 hrs by microdilution broth method; assay type: functional; settings: J 14368/08, 48 h, read-out: MBC>99.9
[35] = system: Staphylococcus epidermidis; assay: Bactericidal activity against Staphylococcus epidermidis H 6966/08 after 48 hrs by microdilution broth method; assay type: functional; settings: H 6966/08, 48 h, read-out: MBC>99.9
Klebsiella pneumoniae [36] = assay: microbe, parasite or virus in culture; assay type: functional; settings: J 14368/08, 48 h
Description: Antibacterial activity against Klebsiella pneumoniae J 14368/08 after 48 hrs by microdilution broth method

Klebsiella pneumoniae [37] = assay: Bactericidal activity against Klebsiella pneumoniae D 11750/08 after 24 hrs by microdilution broth method; assay type: functional; settings: D 11750/08, 24 h, read-out: MBC>99.9
Pseudomonas aeruginosa [38] = assay: microbe, parasite or virus in culture; assay type: functional; settings: CCM 1961, 72 h
Description: Antibacterial activity against Pseudomonas aeruginosa CCM 1961 after 72 hrs by microdilution broth method

Enterococcus sp. [39] = assay: microbe, parasite or virus in culture; assay type: functional; settings: J 14365/08, 24 h
Description: Antibacterial activity against Enterococcus sp. J 14365/08 after 24 hrs by microdilution broth method

[40] = system: Trichophyton mentagrophytes; assay: microbe, parasite or virus in culture; assay type: functional; settings: Trichophyton mentagrophytes, 445, 72 h
Description: Antifungal activity against Trichophyton mentagrophytes 445 after 72 hrs by modified standard CSLI M27-A2 method

Escherichia coli [41] = assay: microbe, parasite or virus in culture; assay type: functional; settings: CCM 4517, 48 h
Description: Antibacterial activity against Escherichia coli CCM 4517 after 48 hrs by microdilution broth method

Pichia kudriavzevii [42] = assay: Fungicidal activity against Candida krusei E28 after 48 hrs by modified standard CSLI M27-A2 method; assay type: functional; settings: E28, 48 h
Escherichia coli [43] = assay: Bactericidal activity against Escherichia coli CCM 4517 after 48 hrs by microdilution broth method; assay type: functional; settings: CCM 4517, 48 h, read-out: MBC>99.9
Escherichia coli [44] = assay: microbe, parasite or virus in culture; assay type: functional; settings: CCM 4517, 24 h
Description: Antibacterial activity against Escherichia coli CCM 4517 after 24 hrs by microdilution broth method

[45] = Cytotoxicity against CHOK1 cells after 24 hrs by MTT assay; assay type: ADME, cell-based; settings: Cricetulus griseus, CHO-K1, 24 h
Candida albicans [46] = assay: Fungicidal activity against Candida albicans ATCC 44859 after 48 hrs by modified standard CSLI M27-A2 method; assay type: functional; settings: ATCC 44859, 48 h
Aspergillus fumigatus [47] = assay: Fungicidal activity against Aspergillus fumigatus 231 after 48 hrs by modified standard CSLI M27-A2 method; assay type: functional; settings: Aspergillus fumigatus, 231, 48 h
Staphylococcus aureus [48] = assay: Bactericidal activity against Staphylococcus aureus CCM 4516/08 after 48 hrs by microdilution broth method; assay type: functional; settings: CCM 4516/08, 48 h, read-out: MBC>99.9
Nakaseomyces glabratus [49] = assay: Antifungal activity against Candida glabrata 20/I after 24 hrs by modified standard CSLI M27-A2 method; assay type: functional

CCCCCCCCCCCCCC[n+]1ccccc1
1.95 µM: MIC (Nakaseomyces glabratus [12]) | MIC (Candida tropicalis [14]) | MIC95 (Enterococcus sp. [17]) | MIC (Candida tropicalis [24]) | MIC95 (Enterococcus sp. [39]) | MIC (Nakaseomyces glabratus [49])
125 µM: MIC (Lichtheimia corymbifera [11]) | MIC (Lichtheimia corymbifera [18]) | MBC (Pseudomonas aeruginosa [22]) | MIC95 (Pseudomonas aeruginosa [25]) | MIC95 (Pseudomonas aeruginosa [38]) | MFC (Candida albicans [46])
0.98 µM: MIC95 (Staphylococcus aureus [3]) | MIC (Pichia kudriavzevii [5]) | MIC95 (Staphylococcus aureus [20]) | MIC (Pichia kudriavzevii [31])
250 µM: MFC (Trichosporon asahii [9]) | MFC (Lichtheimia corymbifera [15]) | MFC (Candida tropicalis [23]) | MFC (Nakaseomyces glabratus [28]) | MFC (Pichia kudriavzevii [42]) | MFC (Aspergillus fumigatus [47])
0.49 µM: MIC95 [19] | MIC95 [26] | MBC [35]
7.81 µM: MIC (Candida albicans [2]) | MIC (Candida albicans [13]) | MIC95 (Klebsiella pneumoniae [27]) | MBC (Klebsiella pneumoniae [34]) | MIC95 (Klebsiella pneumoniae [36]) | MIC95 (Escherichia coli [41]) | MBC (Escherichia coli [43]) | MIC95 (Escherichia coli [44])
25 µM: IC50 [45]
31.2 µM: MIC (Trichosporon asahii [1]) | MIC (Trichosporon asahii [6]) | MIC (Aspergillus fumigatus [10]) | MFC [33]
3.91 µM: MBC (Staphylococcus aureus [16]) | MIC95 (Staphylococcus aureus [21]) | MIC95 (Staphylococcus aureus [29]) | MBC (Staphylococcus aureus [48])
15.6 µM: MIC [4] | MIC95 (Klebsiella pneumoniae [7]) | MIC (Aspergillus fumigatus [8]) | MBC (Enterococcus sp. [30]) | MIC95 (Klebsiella pneumoniae [32]) | MBC (Klebsiella pneumoniae [37]) | MIC [40]

CCCCCCCCCCCC[n+]1ccccc1
31.2 µM: MIC (Aspergillus fumigatus [10]) | MFC (Aspergillus fumigatus [47])
39 µM: IC50 [45]
0.49 µM: MIC95 (Staphylococcus aureus [3]) | MIC (Pichia kudriavzevii [5]) | MIC (Nakaseomyces glabratus [12]) | MIC (Candida tropicalis [14]) | MFC (Nakaseomyces glabratus [28]) | MIC (Pichia kudriavzevii [31]) | MFC (Pichia kudriavzevii [42]) | MIC (Nakaseomyces glabratus [49])
125 µM: MIC (Lichtheimia corymbifera [18])
3.91 µM: MIC [4] | MIC95 (Klebsiella pneumoniae [7]) | MIC (Aspergillus fumigatus [8]) | MBC (Staphylococcus aureus [16]) | MIC95 (Enterococcus sp. [17]) | MIC95 [19] | MIC95 (Staphylococcus aureus [21]) | MFC (Candida tropicalis [23]) | MIC95 (Staphylococcus aureus [29]) | MBC (Enterococcus sp. [30]) | MFC [33] | MBC [35] | MIC95 (Escherichia coli [41]) | MBC (Escherichia coli [43])
62.5 µM: MIC (Lichtheimia corymbifera [11])
0.98 µM: MIC (Candida albicans [2]) | MIC95 [26]
15.6 µM: MIC (Trichosporon asahii [1]) | MFC (Trichosporon asahii [9])
7.81 µM: MIC (Trichosporon asahii [6]) | MBC (Pseudomonas aeruginosa [22]) | MIC95 (Pseudomonas aeruginosa [25]) | MIC95 (Klebsiella pneumoniae [27]) | MIC95 (Klebsiella pneumoniae [32]) | MBC (Klebsiella pneumoniae [34]) | MIC95 (Klebsiella pneumoniae [36]) | MBC (Klebsiella pneumoniae [37]) | MIC95 (Pseudomonas aeruginosa [38])
1.95 µM: MIC (Candida albicans [13]) | MIC95 (Staphylococcus aureus [20]) | MIC (Candida tropicalis [24]) | MIC95 (Enterococcus sp. [39]) | MIC [40] | MIC95 (Escherichia coli [44]) | MFC (Candida albicans [46]) | MBC (Staphylococcus aureus [48])
250 µM: MFC (Lichtheimia corymbifera [15])

CCCCCCCCCCCCCCCC[n+]1ccccc1 [CETYLPYRIDINIUM BROMIDE]
62.5 µM: MFC (Lichtheimia corymbifera [15])
15.6 µM: MBC (Klebsiella pneumoniae [37]) | MFC (Candida albicans [46]) | MFC (Aspergillus fumigatus [47])
125 µM: MBC (Pseudomonas aeruginosa [22])
1.95 µM: MFC (Pichia kudriavzevii [42])
3.9 µM: MFC (Candida tropicalis [23])
7.81 µM: MFC (Trichosporon asahii [9]) | MBC (Enterococcus sp. [30]) | MFC [33] | MBC (Klebsiella pneumoniae [34]) | MBC (Escherichia coli [43])
3.91 µM: MBC (Staphylococcus aureus [16]) | MFC (Nakaseomyces glabratus [28]) | MBC [35] | MBC (Staphylococcus aureus [48])
